Results reported in patent publication US7638509B2, “Diene compounds and formulations” (priority 2003, dated 2009).

Key:
wild-type AR [1] = molecular target: T1, wild-type AR (Homo sapiens, UniProt P10275); assay: AR transcriptional activity (androgenic activity), MMTV-Luc reporter in PC-3 cells transfected with wild-type AR; format: cell-based; parameters: expressed in transfected cells; host or cells: PC-3; settings: PC-3, wild-type AR plasmid + MMTV-Luc, compound at 1000 nM, 24 h
T1 sequence (P10275 1-920): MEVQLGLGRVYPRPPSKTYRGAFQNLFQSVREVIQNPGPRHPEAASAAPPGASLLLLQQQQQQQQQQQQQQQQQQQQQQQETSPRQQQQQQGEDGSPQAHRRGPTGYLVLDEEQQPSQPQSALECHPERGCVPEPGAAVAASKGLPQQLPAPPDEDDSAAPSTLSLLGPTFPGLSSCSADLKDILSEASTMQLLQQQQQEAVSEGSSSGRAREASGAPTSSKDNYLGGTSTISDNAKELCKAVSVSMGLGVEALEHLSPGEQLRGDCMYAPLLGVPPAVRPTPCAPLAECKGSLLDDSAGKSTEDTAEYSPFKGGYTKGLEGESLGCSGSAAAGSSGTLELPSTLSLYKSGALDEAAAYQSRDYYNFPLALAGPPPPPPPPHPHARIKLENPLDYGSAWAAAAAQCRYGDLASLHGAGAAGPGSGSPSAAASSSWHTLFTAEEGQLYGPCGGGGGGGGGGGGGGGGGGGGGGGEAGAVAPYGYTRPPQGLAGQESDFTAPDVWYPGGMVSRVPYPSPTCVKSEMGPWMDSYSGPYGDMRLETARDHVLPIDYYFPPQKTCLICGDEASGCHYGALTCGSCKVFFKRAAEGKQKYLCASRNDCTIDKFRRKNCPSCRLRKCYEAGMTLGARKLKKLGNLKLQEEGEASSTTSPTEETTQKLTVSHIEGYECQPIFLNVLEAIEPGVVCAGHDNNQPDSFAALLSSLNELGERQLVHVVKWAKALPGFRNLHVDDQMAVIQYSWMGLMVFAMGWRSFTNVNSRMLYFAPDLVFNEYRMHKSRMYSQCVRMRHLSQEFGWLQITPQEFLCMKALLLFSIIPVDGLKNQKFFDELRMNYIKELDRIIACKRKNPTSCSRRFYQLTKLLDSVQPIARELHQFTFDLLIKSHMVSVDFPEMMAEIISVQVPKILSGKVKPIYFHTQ
Procedure: (§1) Cell Culture, Transfection, and Reporter Gene Assay. The human prostate cancer cell lines, LNCaP, PC-3, and DU145, and non-prostate cancer cell line COS-1 were maintained in RPMI or Dulbecco's modified Eagle's medium (DMEM) (Life Technologies) supplemented with 10% fetal bovine serum (FBS). Transfections and luciferase (Luc) assays were performed as previously described (Miyamoto, H., Yeh, S., Wilding, G. & Chang, C. (1998) Proc. Natl. Acad. Sci. USA 95, 7379-7384; Miyamoto, H., Rahman, M., Takatera, H., Kang, H.-Y., Yeh, S., Chang, H.-C., Nishimura, K., Fujimoto, N. & Chang, C. (2002) J. Biol. Chem. 277, 4609-4617). Briefly, cells seeded to reach a density of 50-60% confluence in 12 well tissue culture plates were transfected with 1.5 μg of DNA according to “SuperFect transfection” instructions (Qiagen). After 2-3 h incubation, cells were treated with medium supplemented with charcoal-stripped FBS containing either ethanol or ligands for 24 h. The cells were then harvested and whole cell extracts were used for Luc assay. The Luc activity was determined using a Dual-Luciferase Reporter Assay System (Promega) and luminometer.
Anti-DHT Effect of DHEA Derivatives with Low Androgenic Activity on AR Transcription. Test compounds as antiandrogenic compounds, were characterized by analysis of their ability to induce AR transcriptional activity in the AR-negative PC-3 cell line. The Luc activity was determined in the cell extracts with transient transfection of wild-type AR plasmid and androgen response element-reporter plasmid (mouse mammary tumor virus (MMTV)-Luc). After transfection, the cells were treated with various compounds at 0.1-1,000 nM.
To accomplish these studies, PC-3 cells were transfected with the wild-type AR expression plasmid pSG5-AR and MMTV-Luc. […] The Luc activity was measured relative to that of ethanol treatment (set as 1-fold). Values from the mean±SD of at least three determinations were used. PC-3 cells were transfected with the pSG5-AR and MMTV-Luc. […] Values from the mean±SD of at least three determinations were obtained.

PSA = PSA expression in LNCaP cells, Western blot; format: cell-based, human; settings: 48 h, 1 μM compound + 1 nM DHT
Procedure: Western Blot. […] An antibody for -actin (Santa Cruz Biotechnology) was used as the internal control. Blots were quantitated by Collage software (Fotodyne).
The 33-kDa protein was quantitated. β-Actin expression was used as an internal control. […] The mean±SD of three separate experiments was determined. […] Total cell number was counted by hemocytometer. The mean of at least three determinations was determined.

wild-type AR [2] = molecular target: T1, wild-type AR; assay: AR transcription, MMTV-Luc reporter in COS-1 cells co-transfected with pSG5-AR; format: cell-based; parameters: expressed in transfected cells; host or cells: COS-1
Procedure: Cell Culture, Transfection, and Reporter Gene Assay. The human prostate cancer cell lines, LNCaP, PC-3, and DU145, and non-prostate cancer cell line COS-1 were maintained in RPMI or Dulbecco's modified Eagle's medium (DMEM) (Life Technologies) supplemented with 10% fetal bovine serum (FBS). […] Briefly, cells seeded to reach a density of 50-60% confluence in 12 well tissue culture plates were transfected with 1.5 μg of DNA according to “SuperFect transfection” instructions (Qiagen). After 2-3 h incubation, cells were treated with medium supplemented with charcoal-stripped FBS containing either ethanol or ligands for 24 h. The cells were then harvested and whole cell extracts were used for Luc assay. The Luc activity was determined using a Dual-Luciferase Reporter Assay System (Promega) and luminometer.
The pSG5-AR was co-transfected in COS-1 cells. […] Values were obtained from the mean±SD of at least three determinations. DU145 cells were transfected with the pSG5-AR and MMTV-Luc in the presence or absence of pSG5-ARA70. […] Values were obtained for the mean±SD of at least three determinations.

LNCaP cells = assay: LNCaP cell growth, cell count by hemocytometer; format: cell-based, human
Procedure: The mean±SD of three separate experiments was determined. […] Total cell number was counted by hemocytometer. The mean of at least three determinations was determined.

wild-type AR [3] = molecular target: T1, wild-type AR; assay: Adiol-induced AR transcription, MMTV-Luc in PC-3 cells with pSG5-AR; format: cell-based; parameters: expressed in transfected cells; host or cells: PC-3; settings: PC-3, 2.5 nM Adiol, compound at 1 μM
Procedure: as §1
Effect of ADEK on AR Transcription. […] (set as 100%). Values were obtained from the mean±SD of at least three determinations.

CC(=O)O[C@H]1C=C[C@@]2(C)C(=CC[C@@H]3[C@@H]2CC[C@@]2(C)[C@H]3CCC23OCCO3)C1 [ADEK, 3β-acetoxy-17,17-ethylenedioxyandrosta-1,5-diene]
induction on AR transcription as compared to mock treatment (wild-type AR [1]): marginal induction | DHT-induced PSA expression decreased to (DHT = 100%) (PSA): 49% | relative Luc activity (DHT control = 100%) (wild-type AR [2]; COS-1, 1 nM DHT, compound at 0.01 μM): about 75% | relative Luc activity (DHT control = 100%) (wild-type AR [2]; COS-1, 1 nM DHT, compound at 0.1 μM): about 60% | DHT-induced wild-type AR transcription suppressed to (relative Luc activity, DHT = 100%) (wild-type AR [2]; COS-1, 1 nM DHT, compound at 1 μM): 21% | androgenic activity on wild-type AR transcription (in words) (wild-type AR [2]; COS-1, compared with HF and casodex): lower androgenic activity | effect on LNCaP cell growth, DHT alone or compound with DHT (in words) (LNCaP cells; 1 nM DHT, 1 μM compound in presence of DHT): antagonized this DHT effect | effect on LNCaP cell growth in the absence of androgen (in words) (LNCaP cells; 1 μM compound, no DHT): marginally increased growth | repression of Adiol-induced AR transcription (wild-type AR [3]): about 43%
